Columns and labels:
[1] = target: human P2X7 (Homo sapiens (Human), UniProt Q99572); assay: Human P2X7 functional assay (Ca2+ influx, Fluo-4, FDSS); type: cell-based; conditions: antagonistic activity with respect to the human P2X7 receptor; BzATP final concentration 80 microM
Summary of the method: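 Ca2+ influx was triggered with BzATP (80 μM final) after a 10-min room-temperature compound preincubation and monitored with Fluo-4 (ex 480/em 540 nm) on FDSS. The cells were HEK293 stably carrying FLAG-tagged human P2X7. Duplicate-averaged 7-point dose-responses gave IC50s.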

[2] = target: rat P2X7 (Rattus norvegicus (Rat), UniProt Q64663); assay: Rat P2X7 functional assay (Ca2+ influx, Fluo-4, FDSS); type: cell-based; conditions: HEK293 cells stably expressing rat P2X7; BzATP final 10 microM; 7-point dose-response; read-out: Antagonistic activities with respect to the rat P2X7 receptor (IC50)
Sequence of rat P2X7 (Q64663 whole entry): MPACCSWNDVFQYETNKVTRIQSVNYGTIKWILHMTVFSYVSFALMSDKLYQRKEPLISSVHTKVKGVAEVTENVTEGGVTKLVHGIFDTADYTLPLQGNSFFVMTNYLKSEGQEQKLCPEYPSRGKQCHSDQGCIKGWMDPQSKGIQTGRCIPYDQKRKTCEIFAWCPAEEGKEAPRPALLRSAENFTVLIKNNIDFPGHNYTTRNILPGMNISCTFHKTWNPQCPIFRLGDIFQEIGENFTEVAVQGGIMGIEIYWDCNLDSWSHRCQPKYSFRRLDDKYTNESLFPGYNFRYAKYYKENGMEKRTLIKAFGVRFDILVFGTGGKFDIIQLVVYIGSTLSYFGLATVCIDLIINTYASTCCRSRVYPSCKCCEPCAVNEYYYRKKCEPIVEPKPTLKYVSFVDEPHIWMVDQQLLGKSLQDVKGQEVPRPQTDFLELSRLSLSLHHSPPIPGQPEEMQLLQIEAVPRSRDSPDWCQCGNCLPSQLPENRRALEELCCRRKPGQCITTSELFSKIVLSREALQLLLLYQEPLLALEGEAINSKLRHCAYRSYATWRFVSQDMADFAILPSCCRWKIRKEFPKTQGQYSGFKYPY
Summary of the method: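 IC50 derived from 7-point dose-response in duplicate, measuring inhibition of BzATP-evoked (final 10 microM) intracellular Ca2+ increase by Fluo-4 fluorescence on FDSS. Rat P2X7-HEK293 cells were exposed to compound for 10 min in the dark beforehand.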

Sequence of human P2X7 (Q99572 whole entry): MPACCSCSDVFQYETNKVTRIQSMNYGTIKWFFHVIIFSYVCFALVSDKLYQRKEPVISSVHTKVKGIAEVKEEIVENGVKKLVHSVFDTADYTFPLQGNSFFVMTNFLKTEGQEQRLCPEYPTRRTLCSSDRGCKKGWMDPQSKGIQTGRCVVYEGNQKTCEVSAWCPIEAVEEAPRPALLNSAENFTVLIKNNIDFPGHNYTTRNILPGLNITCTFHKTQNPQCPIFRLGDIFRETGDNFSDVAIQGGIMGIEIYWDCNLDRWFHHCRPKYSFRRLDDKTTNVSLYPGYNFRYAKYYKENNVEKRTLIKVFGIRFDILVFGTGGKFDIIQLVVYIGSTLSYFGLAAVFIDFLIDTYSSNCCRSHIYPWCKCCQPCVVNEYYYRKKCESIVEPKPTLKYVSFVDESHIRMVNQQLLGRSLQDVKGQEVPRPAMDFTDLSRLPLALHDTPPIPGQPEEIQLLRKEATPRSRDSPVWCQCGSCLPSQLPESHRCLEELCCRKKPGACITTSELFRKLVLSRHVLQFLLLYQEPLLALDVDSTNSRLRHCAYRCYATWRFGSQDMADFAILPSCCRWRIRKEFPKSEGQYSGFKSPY

O=C(NCc1cc(F)cc(Cl)c1)[C@]1(F)CC[C@H](O)c2ncccc21 [Example 203, (5S,8S)-N-(3-chloro-5-fluorobenzyl)-5-fluoro-8-hydroxy-5,6,7,8-tetrahydroquinoline-5-carboxamide]
IC50 [1]: 50 to 100 nM | IC50 [2]: < 1000 nM

CN(CCO)C[C@]1(O)CC[C@@](F)(C(=O)NCc2ccc(Cl)cc2Cl)c2cccnc21 [Example 277, (5S,8R)-N-(2,4-dichlorobenzyl)-5-fluoro-8-hydroxy-8-(((2-hydroxyethyl) (methyl)amino)methyl)-5,6,7,8-tetrahydroquinoline-5-carboxamide]
IC50 [1]: < 50 nM | IC50 [2]: < 1000 nM

O=C(NCc1ccc(F)cc1Cl)[C@]1(F)CC[C@@](O)(CN2CC(O)C2)c2ncccc21 (relative stereo) [Example 52, (5S*,8R*)-N-(2-chloro-4-fluorobenzyl)-5-fluoro-8-hy-droxy-8-((3-hydroxy-azetidin-1-yl)methyl)-5,6,7,8-tetrahydro-quinoline-5-carboxamide]
IC50 [1]: < 50 nM | IC50 [2]: < 1000 nM

C[C@]1(O)CC[C@@](F)(C(=O)NCc2c(Cl)cc(F)cc2CO)c2cccnc21 [Example 262, (5S,8S)-N-(2-chloro-4-fluoro-6-(hydroxymethyl)benzyl)-5-fluoro-8-hydroxy-8-methyl-5,6,7,8-tetrahydroquinoline-5-carboxamide]
IC50 [1]: < 50 nM | IC50 [2]: < 1000 nM

C[C@]1(O)CC[C@@](F)(C(=O)NCc2ccc(F)c(F)c2F)c2cccnc21 [Example 258, (5S,8S)-5-fluoro-8-hydroxy-8-methyl-N-(2,3,4-trifluorobenzyl)-5,6,7,8-tetrahydroquinoline-5-carboxamide]
IC50 [1]: < 50 nM | IC50 [2]: < 1000 nM

N[C@@]1(CO)CC[C@@](F)(C(=O)NCc2ccc(Cl)cc2Cl)c2cccnc21 (relative stereo) [Example 60, (5S*,8S*)-8-amino-N-(2,4-dichloro-benzyl)-5-fluoro-8-(hydroxymethyl)-5,6,7,8-tetrahydroquinoline-5-carboxamide]
IC50 [1]: 101 to 300 nM | IC50 [2]: < 1000 nM

C[C@]1(O)CC[C@@](F)(C(=O)NCc2ccc(Cl)cc2Cl)c2cccnc21 [Example 256, (5S,8S)-N-(2,4-dichlorobenzyl)-5-fluoro-8-hydroxy-8-methyl-5,6,7,8-tetrahydroquinoline-5-carboxamide]
IC50 [1]: < 50 nM | IC50 [2]: < 1000 nM

O=C(NCC1(N2CCOCC2)CCCCC1)[C@]1(F)CC[C@H](O)c2ncccc21 [Example 192, (5S,8S)-5-fluoro-8-hydroxy-N-((1-morpholinocyclohexyl)methyl)-5,6,7,8-tetrahydroquinoline-5-carboxamide]
IC50 [1]: < 50 nM | IC50 [2]: < 1000 nM

O=C(NCc1ccc(Cl)cc1F)[C@]1(F)CC[C@H](O)c2ncccc21 [Example 146, (5S,8S)-N-(4-chloro-2-fluorobenzyl)-5-fluoro-8-hydroxy-5,6,7,8-tetrahydroquinoline-5-carboxamide]
IC50 [1]: < 50 nM | IC50 [2]: < 1000 nM

O=C(NCc1ccc(F)cc1F)[C@]1(F)CC[C@H](O)c2ncccc21 [Example 141, (5S,8S)-N-(2,4-difluorobenzyl)-5-fluoro-8-hydroxy-5,6,7,8-tetrahydroquinoline-5-carboxamide]
IC50 [1]: < 50 nM | IC50 [2]: < 1000 nM

CNCC1(O)CCC(F)(C(=O)NCc2c(C)cc(Cl)cc2Cl)c2cccnc21 (centres unmarked) [Example 46, N-(2,4-dichloro-6-methylbenzyl)-5-fluoro-8-hydroxy-8-((methyl-amino)methyl)-5,6,7,8-tetra-hydroquinoline-5-carboxamide]
IC50 [1]: < 50 nM | IC50 [2]: < 1000 nM

N#CC[C@@]1(O)CC[C@@](F)(C(=O)NCc2ccc(F)cc2Cl)c2cccnc21 [Example 282, (5S,8S)-N-(2-chloro-4-fluorobenzyl)-8-(cyanomethyl)-5-fluoro-8-hydroxy-5,6,7,8-tetrahydroquinoline-5-carboxamide]
IC50 [1]: < 50 nM | IC50 [2]: < 1000 nM

Cc1cc(Cl)cc(Cl)c1CNC(=O)C1CCC(=O)c2ncccc21 (centres unmarked) [Example 1, N-(2,4-dichloro-6-methyl-benzyl)-8-oxo-5,6,7,8-tetrahydroquinoline-5-carboxamide]
IC50 [1]: < 50 nM | IC50 [2]: < 1000 nM
